# Target: Human immunodeficiency virus type 1 integrase (Human immunodeficiency virus 1, UniProt Q7ZJM1)
# Assay: Inhibitory activity against HIV-1 Integrase (HIV-1-IN)
# Sequence of Human immunodeficiency virus type 1 integrase (Q7ZJM1 whole entry): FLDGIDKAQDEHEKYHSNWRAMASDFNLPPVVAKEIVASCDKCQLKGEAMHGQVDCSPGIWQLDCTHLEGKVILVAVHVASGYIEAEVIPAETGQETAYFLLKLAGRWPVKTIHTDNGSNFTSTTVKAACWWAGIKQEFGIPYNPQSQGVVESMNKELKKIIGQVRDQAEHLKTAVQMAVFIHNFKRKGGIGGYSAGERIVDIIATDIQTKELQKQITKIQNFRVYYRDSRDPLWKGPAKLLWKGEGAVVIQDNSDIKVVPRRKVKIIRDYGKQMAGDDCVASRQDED
row,SMILES,IC50
1,O=C(/C=C/c1ccc(O)cc1)CC(=O)/C=C/c1ccc(O)cc1 [BISDEMETHOXYCURCUMIN],100 µM
2,O=C(NCc1ccccc1)c1cc2cc(O)c(O)cc2cn1,100 µM
3,COc1ccc(/C=C/C(=O)OCCc2ccccc2)cc1OC,100 µM
4,CCOC(=O)/C=C/c1ccc(O)c(O)c1 [ETHYL CAFFEATE],100 µM
5,COOC(=O)c1cc2cc(O)c(O)cc2cn1,100 µM
6,COOC(=O)c1ccc2c(O)c(O)ccc2c1,7.94 µM
7,COc1cc(/C=C/C(=O)OCCc2ccccc2)ccc1O,100 µM
8,O=C(/C=C/c1cc(O)ccc1O)OCCc1ccccc1,100 µM
9,COc1ccc(/C=C/C(=O)/C=C/c2ccc(OC)c(OC)c2)cc1OC,100 µM
10,COOC(=O)c1cc2ccc(O)c(O)c2cn1,14.1 µM

# Next, values leading:
row,IC50,SMILES
1,100 µM,O=C(/C=C/c1ccc(F)c(F)c1)OCCc1ccccc1
2,100 µM,COc1cc(/C=C2\CCC/C(=C\c3ccc(O)c(OC)c3)C2=O)ccc1O [CYCLOVALONE]
3,100 µM,O=C(/C=C/c1ccc(O)cc1)c1ccc(O)cc1O [ISOLIQUIRITIGENIN]
4,100 µM,O=C(/C=C(O)/C=C/c1ccccc1)/C=C/c1ccccc1
5,100 µM,COC(=O)/C=C/c1ccc(O)c(O)c1 [METHYLCAFFEATE]
6,100 µM,O=C(/C=C/c1ccc(O)cc1)/C=C/c1ccc(O)cc1
7,100 µM,COc1ccc(/C=C/C(=O)/C=C(O)/C=C/c2ccc(OC)c(OC)c2)cc1OC
8,100 µM,O=C(/C=C/c1ccc(O)c(O)c1)CCc1ccccc1

# Source: ChEMBL document CHEMBL1135718, “CoMFA and CoMSIA 3D QSAR and docking studies on conformationally-restrained cinnamoyl HIV-1 integrase inhibitors: exploration of a binding mode at the active site” (J Med Chem, 2002)
